Data reported in US11059794B2, “Heterocyclic compounds useful as dual ATX/CA inhibitors” (Hoffmann-La Roche Inc., priority 2017, dated 2021).

Legend:
[1] = target: ATX (human His-tagged) (Homo sapiens (Human), UniProt Q13822); test: Human ATX enzyme inhibition assay (fluorescence quenching, MR121 substrate); format: biochemical; settings: 30 nM ATX, 1 μM MR121 substrate, 30° C.
[2] = target: Human carbonic anhydrase II (hCA-II) (Homo sapiens (Human), UniProt P00918); test: Human carbonic anhydrase-II inhibition assay (absorbance, 4-nitrophenyl acetate substrate); format: biochemical; settings: 8 nM hCA II, 2.5 mM 4-NPA, absorbance 340 nm, 1 hour room temperature; read-out: CA-II IC50

IC50 [1]	IC50 [2]	SMILES
4 nM	14 nM	Cc1nnn(Cc2cc(C(F)(F)F)ccc2CCC(=O)N2CCC(CC[S+]([O-])c3ncc(S(N)(=O)=O)s3)CC2)n1 (stereo not shown) [Example 6.06, 2-[2-[1-[3-[2-[(5-methyltetrazol-2-yl)methyl]-4-(trifluoromethyl)phenyl]propanoyl]piperidin-4-yl]ethylsulfinyl]-1,3-thiazole-5-sulfonamide]
7 nM		Cc1nnn(Cc2cc(OC(F)F)ccc2CCC(=O)N2CCC(CC[S+]([O-])c3ncc(S(N)(=O)=O)s3)CC2)n1 (stereo not shown) [Example 6.44, 2-[2-[1-[3-[4-(difluoromethoxy)-2-[(5-methyltetrazol-2-yl)methyl]phenyl]propanoyl]piperidin-4-yl]ethylsulfinyl]-1,3-thiazole-5-sulfonamide]
7 nM	15.5 nM	NS(=O)(=O)c1ccc(CN2CCN(C(=O)c3cc(OCC4CCOCC4)nc(C4CC4)c3)CC2)c(F)c1 [Example 2.02, 4-[[4-[2-cyclopropyl-6-(oxan-4-ylmethoxy)pyridine-4-carbonyl]piperazin-1-yl]methyl]-3-fluorobenzenesulfonamide]
8 nM		Cc1nnn(Cc2cc(C(F)(F)F)ccc2COC(=O)N2CCC(S(=O)(=O)c3ccc(S(N)(=O)=O)cc3F)CC2)n1 [Example 1.04, [2-[(5-methyltetrazol-2-yl)methyl]-4-(trifluoromethyl)phenyl]methyl 4-(2-fluoro-4-sulfamoylphenyl)sulfonylpiperidine-1-carboxylate]
27 nM		Cc1nnn(Cc2cc(C(F)(F)F)ccc2CCC(=O)N2CCN(Cc3ccc(S(N)(=O)=O)cc3)CC2)n1 [Example 9.00, 4-[[4-[3-[2-[(5-Methyltetrazol-2-yl)methyl]-4-(trifluoromethyl)phenyl]propanoyl]piperazin-1-yl]methyl]benzenesulfonamide]
73 nM		Cc1nnn(Cc2cc(Cl)cnc2COC(=O)N2CCC(S(=O)(=O)c3ccc(S(N)(=O)=O)cc3F)CC2)n1 [Example 1.03, [5-chloro-3-[(5-methyltetrazol-2-yl)methyl]pyridin-2-yl]methyl 4-(2-fluoro-4-sulfamoylphenyl)sulfonylpiperidine-1-carboxylate]
6 nM		Cc1nnn(Cc2cc(C(F)(F)F)ccc2CCC(=O)N2CCC(CC[S+]([O-])c3ccc(S(N)(=O)=O)c(F)c3F)CC2)n1 (stereo not shown) [Example 6.43, 2,3-difluoro-4-[2-[1-[3-[2-[(5-methyltetrazol-2-yl)methyl]-4-(trifluoromethyl)phenyl]propanoyl]piperidin-4-yl]ethylsulfinyl]benzenesulfonamide]
3 nM		Cc1nnn(Cc2cc(OC(F)F)ccc2CCC(=O)N2CCC(CC[S+]([O-])c3ccc(S(N)(=O)=O)c(F)c3F)CC2)n1 (stereo not shown) [Example 6.42, 4-[2-[1-[3-[4-(difluoromethoxy)-2-[(5-methyltetrazol-2-yl)methyl]phenyl]propanoyl]piperidin-4-yl]ethylsulfinyl]-2,3-difluorobenzenesulfonamide]
